Experimental data taken from patent publication US8841312B2, “Fused pyridine, pyrimidine and triazine compounds as cell cycle inhibitors” (Amgen Inc., priority 2007, dated 2014).

Tests used:
Cdk4/CyclinD1 = Cdk4/CyclinD1 (Homo sapiens (Human), UniProt P11802); test: Cdk4 kinase inhibition assay with recombinant Cdk4/CyclinD1, Rb substrate, [33P]-ATP filter plate; format: biochemical; details: 25 μM ATP, read-out: Cdk 4 IC50
Outline: (§1)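 Recombinant Cdk4/CyclinD1 or Cdk6/CyclinD3 phosphorylated Rb protein with [33P]-ATP for 1 h at room temperature. Protein was TCA-precipitated on filter plates and bound radioactivity counted. IC50 by nonlinear regression.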

Cdk6/CyclinD3 = Cdk6/CyclinD3 (Homo sapiens (Human), UniProt Q00534); test: Cdk6 kinase inhibition assay with recombinant Cdk6/CyclinD3, Rb substrate, [33P]-ATP filter plate; format: biochemical; details: 25 μM ATP, read-out: Cdk 6 IC50
Chain of Cdk6/CyclinD3 (Q00534 whole entry): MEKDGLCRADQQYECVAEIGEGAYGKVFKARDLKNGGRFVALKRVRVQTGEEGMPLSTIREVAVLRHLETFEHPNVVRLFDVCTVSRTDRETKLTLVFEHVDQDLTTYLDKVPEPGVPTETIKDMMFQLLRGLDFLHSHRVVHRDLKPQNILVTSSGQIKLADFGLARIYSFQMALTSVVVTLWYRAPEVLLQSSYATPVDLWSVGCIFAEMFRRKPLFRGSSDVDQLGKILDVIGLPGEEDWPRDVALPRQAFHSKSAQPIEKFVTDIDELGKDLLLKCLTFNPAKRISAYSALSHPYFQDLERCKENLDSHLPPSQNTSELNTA
Chain of Cdk6/CyclinD3 (P30281 whole entry partner): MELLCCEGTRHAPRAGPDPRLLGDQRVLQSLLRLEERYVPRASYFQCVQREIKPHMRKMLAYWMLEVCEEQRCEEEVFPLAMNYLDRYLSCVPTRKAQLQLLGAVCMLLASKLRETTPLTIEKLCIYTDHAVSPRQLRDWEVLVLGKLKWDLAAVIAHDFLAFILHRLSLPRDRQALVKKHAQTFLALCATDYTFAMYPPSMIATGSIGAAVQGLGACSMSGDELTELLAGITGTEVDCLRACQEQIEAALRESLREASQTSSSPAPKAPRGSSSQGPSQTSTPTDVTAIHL
Outline: as §1

Chain of Cdk4/CyclinD1 (P11802 whole entry): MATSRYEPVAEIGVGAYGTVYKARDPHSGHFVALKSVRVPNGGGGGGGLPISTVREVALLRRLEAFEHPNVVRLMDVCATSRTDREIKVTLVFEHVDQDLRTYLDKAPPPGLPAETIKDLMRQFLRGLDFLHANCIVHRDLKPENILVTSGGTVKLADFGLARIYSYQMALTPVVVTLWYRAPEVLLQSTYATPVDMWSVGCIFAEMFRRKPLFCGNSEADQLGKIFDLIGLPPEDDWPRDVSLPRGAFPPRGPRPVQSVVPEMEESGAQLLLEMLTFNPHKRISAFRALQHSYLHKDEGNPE
Chain of Cdk4/CyclinD1 (P24385 whole entry partner): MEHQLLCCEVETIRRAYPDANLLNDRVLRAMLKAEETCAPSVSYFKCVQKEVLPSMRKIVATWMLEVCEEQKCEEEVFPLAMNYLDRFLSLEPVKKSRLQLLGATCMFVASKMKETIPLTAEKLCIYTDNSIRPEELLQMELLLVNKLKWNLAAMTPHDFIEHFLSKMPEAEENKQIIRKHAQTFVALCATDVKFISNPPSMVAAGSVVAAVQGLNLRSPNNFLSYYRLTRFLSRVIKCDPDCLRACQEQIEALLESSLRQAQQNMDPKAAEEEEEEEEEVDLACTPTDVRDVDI

O=S(=O)(c1ccc(Nc2ncc3c4ccncc4n(C4CCCC4)c3n2)nc1)N1CCNCC1 [Example 227, 9-Cyclopentyl-N-(5-(1-piperazinylsulfonyl)-2-pyridinyl)-9H-pyrido[4′,3′:4,5]pyrrolo[2,3-d]pyrimidin-2-amine]
IC50 (Cdk4/CyclinD1): 3 nM
IC50 (Cdk6/CyclinD3): 3.1 nM

CN(C)CCN(C)C1CCN(c2ccc(Nc3ncc4c5ccncc5n(C5CCCC5)c4n3)nn2)CC1 [Example 479]
IC50 (Cdk4/CyclinD1): 8 nM
IC50 (Cdk6/CyclinD3): 17 nM

NCC1CCN(c2ccc(Nc3ncc4c5ccncc5n(C5CCCC5)c4n3)nn2)CC1 [Example 101, 4-Aminomethyl-1-(6-((9-cyclopentyl-9H-pyrido[4′,3′:4,5]pyrrolo[2,3-d]pyrimidin-2-yl)amino)-3-pyridazinyl)-piperidine]
IC50 (Cdk4/CyclinD1): 4 nM
IC50 (Cdk6/CyclinD3): 8.8 nM

c1ccc2c(c1)c1cnc(Nc3ccc(N4CCNCC4)cn3)nc1n2C1CCCCCC1 [Example 39, (9-Cycloheptyl-9H-pyrimido[4,5-b]indol-2-yl)-(5-piperazin-1-yl-pyridin-2-yl)-amine]
IC50 (Cdk4/CyclinD1): 2.1 nM
IC50 (Cdk6/CyclinD3): 3.1 nM

C1=C(c2ccc(Nc3ncc4c5ccncc5n(C5CCCC5)c4n3)nn2)CCNC1 [Example 255, 9-Cyclopentyl-N-(6-(1,2,3,6-tetrahydro-4-pyridinyl)-3-pyridazinyl)-9H-pyrido[4′,3′:4.5]pyrrolo[2,3-d]pyrimidin-2-amine]
IC50 (Cdk4/CyclinD1): 5.6 nM
IC50 (Cdk6/CyclinD3): 60 nM

C[C@@H](O)Cn1c2cnccc2c2cnc(Nc3ccc(N4CC[C@@H](O)C4)cn3)nc21 [Example 358]
IC50 (Cdk4/CyclinD1): 470 nM
IC50 (Cdk6/CyclinD3): 590 nM

CCC(CC)n1c2cnccc2c2cnc(Nc3ccc(N4CCC(N(C)C)CC4)nn3)nc21 [Example 163, N-(6-(4-(Dimethylamino)-1-piperidinyl)-3-pyridazinyl)-9-(1-ethylpropyl)-9H-pyrido[4′,3′:4,5]pyrrolo[2,3-d]pyrimidin-2-amine]
IC50 (Cdk4/CyclinD1): 17 nM
IC50 (Cdk6/CyclinD3): 16 nM

OC1CN(C2CCN(c3ccc(Nc4ncc5c6ccncc6n(C6CCCC6)c5n4)nc3)CC2)C1 [Example 474]
IC50 (Cdk4/CyclinD1): 5 nM
IC50 (Cdk6/CyclinD3): 12 nM

C[C@@H](C1CCCCC1)n1c2cnccc2c2cnc(Nc3ccc(N4CCNCC4)cn3)nc21 [Example 29]
IC50 (Cdk4/CyclinD1): 3.9 nM
IC50 (Cdk6/CyclinD3): 5.7 nM

COc1cc(-c2ccc(Nc3ncc4c5ccncc5n(C5CCCC5)c4n3)nn2)ccn1 [Example 262, 9-Cyclopentyl-N-(6-(2-methoxy-4-pyridinyl)-3-pyridazinyl)-9H-pyrido[4′,3′:4,5]pyrrolo[2,3-d]pyrimidin-2-amine]
IC50 (Cdk4/CyclinD1): 32 nM
IC50 (Cdk6/CyclinD3): 38 nM

CNC1CCN(c2ccc(Nc3ncc4c5ccncc5n(C5CCC5)c4n3)nn2)CC1 [Example 434]
IC50 (Cdk4/CyclinD1): 13 nM
IC50 (Cdk6/CyclinD3): 19 nM

c1ccc2c(c1)CCC2n1c2cnccc2c2cnc(Nc3ccc(N4CCNCC4)cn3)nc21 (stereo not drawn) [Example 25, (9-Indan-1-yl-9H-pyrido[4′,3′:4,5]pyrrolo[2,3-d]pyrimidin-2-yl)-(5-piperazin-1-yl-pyridin-2-yl)-amine]
IC50 (Cdk4/CyclinD1): 30 nM
IC50 (Cdk6/CyclinD3): 38 nM

COc1ccc2c3cnc(Nc4ccc(N5CCNCC5)cn4)nc3n(C3CCCC3)c2n1 [Example 182, 9-Cyclopentyl-7-methoxy-N-(5-(1-piperazinyl)-2-pyridinyl)-9H-pyrido[3′,2′:4,5]pyrrolo[2,3-d]pyrimidin-2-amine]
IC50 (Cdk4/CyclinD1): 113 nM
IC50 (Cdk6/CyclinD3): 16 nM

C[C@@H](O)Cn1c2cnccc2c2cnc(Nc3ccc(N4CCC(N(C)C)CC4)cn3)nc21 [Example 357]
IC50 (Cdk4/CyclinD1): 294 nM
IC50 (Cdk6/CyclinD3): 314 nM

CCC(CC)n1c2cnccc2c2cnc(Nc3ccc(N4CC[C@@H](O)C4)nn3)nc21 [Example 162, (3R)-1-(6-((9-(1-Ethylpropyl)-9H-pyrido[4′,3′:4,5]pyrrolo[2,3-d]pyrimidin-2-yl)-amino)-3-pyridazinyl)-3-pyrrolidinol]
IC50 (Cdk4/CyclinD1): 10000 nM
IC50 (Cdk6/CyclinD3): 110 nM

c1cc2c3cnc(Nc4ccc(N5CCCCC5)nn4)nc3n(C3CCCC3)c2cn1 [Example 107]
IC50 (Cdk4/CyclinD1): 8.4 nM
IC50 (Cdk6/CyclinD3): 48 nM

c1cc2c3cnc(Nc4ccc(N[C@H]5CCNC5)cn4)nc3n(C3CCCC3)c2cn1 [Example 64]
IC50 (Cdk4/CyclinD1): 2.8 nM
IC50 (Cdk6/CyclinD3): 24 nM

O[C@H]1CCN(C2CCN(c3ccc(Nc4ncc5c6ccncc6n(C6CCCC6)c5n4)nn3)CC2)C1 [Example 450]
IC50 (Cdk4/CyclinD1): 10 nM
IC50 (Cdk6/CyclinD3): 16 nM

c1cc2c3cnc(Nc4ccc(N5CCNCC5)nn4)nc3n(C3CCC3)c2cn1 [Example 346]
IC50 (Cdk4/CyclinD1): 54 nM
IC50 (Cdk6/CyclinD3): 16 nM

CC1(C)CN(c2ccc(Nc3ncc4c5ccncc5n(C5CCC5)c4n3)nn2)CCN1 [Example 348]
IC50 (Cdk4/CyclinD1): 17 nM
IC50 (Cdk6/CyclinD3): 12 nM

Cc1nccc2c3cnc(Nc4ccc(N5CCNCC5)cn4)nc3n(C3CCCC3)c12 [Example 54, 9-cyclopentyl-8-methyl-N-(5-(1-piperazinyl)-2-pyridinyl)-9H-pyrido[4′,3′:4,5]pyrrolo[2,3-d]pyrimidin-2-amine]
IC50 (Cdk4/CyclinD1): 20 nM
IC50 (Cdk6/CyclinD3): 47 nM

CN(C)[C@@H]1CCN(c2ccc(Nc3ncc4c5ccncc5n(C5CCCC5)c4n3)nc2)C1 [Example 289]
IC50 (Cdk4/CyclinD1): 7.2 nM
IC50 (Cdk6/CyclinD3): 40 nM

O=C(O)CN1CCN(Cc2ccc(Nc3ncc4c5ccncc5n(C5CCCC5)c4n3)nc2)CC1 [Example 220, (4-((6-((9-cyclopentyl-9H-pyrido[4′,3′:4,5]pyrrolo[2,3-d]pyrimidin-2-yl)amino)-3-pyridinyl)methyl)-1-piperazinyl)acetic acid]
IC50 (Cdk4/CyclinD1): 1 nM
IC50 (Cdk6/CyclinD3): 3.3 nM

c1cc2c3cnc(Nc4ccc(N5CCNCC5)cn4)cc3n(Cc3ccsc3)c2cn1 [Example 235, N-(5-(1-piperazinyl)-2-pyridinyl)-5-(3-thiophenylmethyl)-5H-pyrido[3′,4′:4,5]pyrrolo[2,3-c]pyridin-3-amine]
IC50 (Cdk4/CyclinD1): 125 nM
IC50 (Cdk6/CyclinD3): 257 nM

c1ccc2c(c1)c1cnc(Nc3ccc(N4CCNCC4)cn3)nc1n2C1CCOCC1 [Example 38, (5-piperazin-1-yl-pyridin-2-yl)-[9-(tetrahydro-pyran-4-yl)-9H-pyrimido[4,5-b]indol-2-yl]-amine]
IC50 (Cdk4/CyclinD1): 2.1 nM
IC50 (Cdk6/CyclinD3): 15.3 nM

c1cc2c3cnc(Nc4ccc(N5CCC(NC6CC6)CC5)cn4)nc3n(C3CCCC3)c2cn1 [Example 465]
IC50 (Cdk4/CyclinD1): 4.1 nM
IC50 (Cdk6/CyclinD3): 12 nM

CN(CCO)C1CCN(c2ccc(Nc3ncc4c5ccncc5n(C5CCCC5)c4n3)nc2)CC1 [Example 457]
IC50 (Cdk4/CyclinD1): 19 nM
IC50 (Cdk6/CyclinD3): 37 nM

CC[C@@H](C)n1c2cnccc2c2cnc(Nc3ccc(N4CCNCC4)nn3)nc21 [Example 323]
IC50 (Cdk4/CyclinD1): 9.6 nM
IC50 (Cdk6/CyclinD3): 23 nM

CC[C@@H](C)n1c2cnccc2c2cnc(Nc3ccc(N4CCC(NC)CC4)nn3)nc21 [Example 318]
IC50 (Cdk4/CyclinD1): 2.9 nM
IC50 (Cdk6/CyclinD3): 27 nM

CCNC1CCN(c2ccc(Nc3ncc4c5ccncc5n(C5CCCC5)c4n3)nc2)CC1 [Example 464]
IC50 (Cdk4/CyclinD1): 2 nM
IC50 (Cdk6/CyclinD3): 3.1 nM

N[C@H]1CCN(c2ccc(Nc3ncc4c5ccncc5n(C5CCCC5)c4n3)nn2)C1 [Example 108]
IC50 (Cdk4/CyclinD1): 12 nM
IC50 (Cdk6/CyclinD3): 15.7 nM

c1cc2c3cnc(Nc4ccc(NCC5CCNC5)nn4)nc3n(C3CCCC3)c2cn1 (stereo not drawn) [Example 98]
IC50 (Cdk4/CyclinD1): 2.5 nM
IC50 (Cdk6/CyclinD3): 26.6 nM

CC1(n2c3cnccc3c3cnc(Nc4ccc(N5CCNCC5)cn4)nc32)CCC1 [Example 33, [9-(1-Methyl-cyclobutyl)-9H-pyrido[4′,3′:4,5]pyrrolo[2,3-d]pyrimidin-2-yl]-(5-piperazin-1-yl-pyridin-2-yl)-amine]
IC50 (Cdk4/CyclinD1): 5.3 nM
IC50 (Cdk6/CyclinD3): 8.9 nM

c1ccc2c(c1)c1cnc(Nc3ccc(N4CCNCC4)cc3)nc1n2C1CCCC1 [Example 47, (9-Cyclopentyl-9H-pyrimido[4,5-b]indol-2-yl)-(4-piperazin-1-yl-phenyl)-amine]
IC50 (Cdk4/CyclinD1): 2 nM
IC50 (Cdk6/CyclinD3): 3.7 nM

O=C(O)CNC1CCN(c2ccc(Nc3ncc4c5ccncc5n(C5CCCC5)c4n3)nc2)CC1 [Example 477]
IC50 (Cdk4/CyclinD1): 2 nM
IC50 (Cdk6/CyclinD3): 5.1 nM

Cc1cc(Nc2ncc3c4ccncc4n(C4CCCC4)c3n2)cnc1N1CCNCC1 [Example 5, 9-cyclopentyl-N-(5-methyl-6-(1-piperazinyl)-3-pyridinyl)-9H-pyrido-[4′,3′:4,5]pyrrolo[2,3-d]pyrimidin-2-amine]
IC50 (Cdk4/CyclinD1): 0.91 nM
IC50 (Cdk6/CyclinD3): 4.2 nM

COc1ccc(-c2ccc(Nc3ncc4c5ccncc5n(C5CCCC5)c4n3)nn2)cn1 [Example 261, 9-Cyclopentyl-N-(6-(6-methoxy-3-pyridinyl)-3-pyridazinyl)-9H-pyrido[4′,3′:4,5]pyrrolo[2,3-d]pyrimidin-2-amine]
IC50 (Cdk4/CyclinD1): 233 nM
IC50 (Cdk6/CyclinD3): 360 nM

O[C@@H]1CCCN(c2ccc(Nc3ncc4c5ccncc5n(C5CCCC5)c4n3)nn2)C1 [Example 104]
IC50 (Cdk4/CyclinD1): 3.3 nM
IC50 (Cdk6/CyclinD3): 14 nM

c1cc2c3cnc(Nc4ccc(N5CCCNCC5)cn4)nc3n(C3CCCC3)c2cn1 [Example 48, 9-cyclopentyl-N-(5-(1,4-diazepan-1-yl)-2-pyridinyl)-9H-pyrido[4′,3′:4,5]pyrrolo[2,3-d]pyrimidin-2-amine]
IC50 (Cdk4/CyclinD1): 1.6 nM
IC50 (Cdk6/CyclinD3): 5.6 nM

C[C@@H]1CN(c2ccc(Nc3ncc4c5ccnc(F)c5n(C5CCCC5)c4n3)nn2)CCN1 [Example 253, 9-Cyclopentyl-8-fluoro-N-(6-((3R)-3-methyl-1-piperazinyl)-3-pyridazinyl)-9H-pyrido[4′,3′:4,5]pyrrolo[2,3-d]pyrimidin-2-amine]
IC50 (Cdk4/CyclinD1): 3.9 nM
IC50 (Cdk6/CyclinD3): 27 nM

CNC1CCN(c2ccc(Nc3ncc4c5ccncc5n(C5CCC5)c4n3)nc2)CC1 [Example 345]
IC50 (Cdk4/CyclinD1): 21 nM
IC50 (Cdk6/CyclinD3): 15 nM

O=S1(=O)CCN(c2ccc(Nc3ncc4c5ccncc5n(C5CCCC5)c4n3)nc2)CC1 [Example 66]
IC50 (Cdk4/CyclinD1): 5.4 nM
IC50 (Cdk6/CyclinD3): 73 nM

COCCn1c2cnccc2c2cnc(Nc3ccc(N4CCNCC4)cn3)nc21 [Example 312]
IC50 (Cdk4/CyclinD1): 370 nM
IC50 (Cdk6/CyclinD3): 790 nM

OCCCNC1CCN(c2ccc(Nc3ncc4c5ccncc5n(C5CCCC5)c4n3)nn2)CC1 [Example 453]
IC50 (Cdk4/CyclinD1): 4.6 nM
IC50 (Cdk6/CyclinD3): 13 nM

CC[C@@H](C)n1c2cnccc2c2cnc(Nc3ccc(N4CCN[C@@H](C)C4)nn3)nc21 [Example 317]
IC50 (Cdk4/CyclinD1): 12 nM
IC50 (Cdk6/CyclinD3): 21 nM
